For one series, the system named is MB-231. Also on record: key to the marks not given beside the values.
The test system of a further series is MB-468. Also on record: key to the marks not given beside the values.
For a further series, the system named is MCF-7. The arrangement: key to the marks not given beside the values.
The next series relates to HT-29. Also on record: key to the marks not given beside the values.
The test system of another series is NCI H460. Also on record: key to the marks not given beside the values.
Another series deals with OVCAR. The arrangement: key to the marks not given beside the values.
The subject of a further series is PC-3. Also on record: key to the marks not given beside the values.
Series [1] can be described thus: Live/Dead cytotoxicity assay, hybridoma supernatant. Particulars: human.

As to `C[C@@H]1C[C@@H]([C@H](O)CC2CC(=O)NC(=O)C2)C(=O)[C@@H](C)C1` [Cycloheximide], the “cytotoxicity, experiments greater than threshold, MB-231” value in the series on MB-231 is given as “+++”. The “cytotoxicity, experiments greater than threshold, MB-468” value in the series on MB-468 is recorded as “+++”. Besides, in the series with MCF-7, the “cytotoxicity, experiments greater than threshold, MCF-7” value is listed as “+++”. The “cytotoxicity, experiments greater than threshold, HT-29” value in the series with HT-29 is “+++”. Further, the “cytotoxicity, experiments greater than threshold, NCI H460” value with NCI H460 was “+++”. The “cytotoxicity, experiments greater than threshold, OVCAR” value in the series on OVCAR was “+++”. For the same compound, the “cytotoxicity, experiments greater than threshold, PC-3” value in the series with PC-3 is listed as “+++”. In series [1], this compound had a cytotoxicity at 5 days of 17%.

Source of the values: patent US20040141914A1, “Cancerous disease modifying antibodies” (priority 2003, published 2004).
